According to patent US20130324522A1, “INSECT ODORANT RECEPTOR ANTAGONISTS” (THE ROCKEFELLER UNIVERSITY, priority 2010, published 2013):
Read-outs that look alike come from different tables or passages of the source.

Assays:
OR8/OR7 = OR8/OR7 (Anopheles gambiae, UniProt Q7PUT5+Q7QCC7); test: Ca2+-imaging of stable HEK293T cell line OR8/OR7; format: cell-based; conditions: for inhibition at 4 µM: HEK-293T, read-out: Percent Inhibition OR8 OR7
Description: Full-length cDNAs for mosquito (Anopheles gambiae) odorant receptor (OR1, OR2, OR7, OR8, OR28), and fly (Drosophila melanogaster) odorant receptor (Or47a, Or83b), mouse TRP channel (TRPM8), and mouse serotonin receptor (5HT3) were obtained and subcloned into mammalian expression vectors. The following mammalian expression vectors were used:
Stable cell lines OR1/OR7, OR2/OR7, OR8/OR7, OR10/OR7, OR28/OR7 and TRPM8 were generated from HEK293T cells. HEK293T-based cell lines were cultured in DMEM supplemented with these additional antibiotics: 6 μg/mL blasticidin and 1 μg/mL puromycin, with the exception of the TRPM8 cell lines, which was cultured in DMEM supplemented with 1 μg/mL puromycin.
Cells were trypsinized and split into 35 mm dishes one day before transfection. Confluent cells (60-70%) in 35 mm dishes were transfected with 1 μg of insect OR(X) plasmids in pME18s-bla and 1 μg of OR7-pME18s-puro using lipofectamine 2000. For Anopheles odorant receptors, two plasmids were co-transfected into HEK cells: the ligand-specific receptor (OR1, OR2, OR8, OR28) and the corresponding olfactory co-receptor: OR7. Cell lines containing TRPM8 were transfected with single plasmid.
(§1) Stable cell lines were cultured in 10 cm dishes, and confluent cells (70-80%) were trypsinized. 10,000 cells/20 μL were transferred into each well of 384-well plates coated with poly-D-lysine, and cultured for 2 days. For Flip-In T-Rex cells (cell lines expressing Or47a/Or83b and 5HT3), 5 μL of tetracycline (5 μg/mL) were added 1 day before the assay. 20 μL of Ca-4 dye was loaded into each well for 1.5 hr at room temperature in the dark, and the dye-loaded plates were subjected to Ca^2+-imaging using a Hamamatsu FDSS6000 real time fluorescence plate reader. Odorant solutions (9× final concentration) were prepared by dissolving 1M stock solutions into Hank's Buffered Salt Solution (HBSS), and 30 μL of odor solution was transferred to each well in 384-well plates.
(§2) Compounds ([…] in DMSO) were stored in 384-well plates, and last two columns (32 wells total) contained only DMSO. 200 nL of small compounds were transferred into the odorant plates before the assay using the Perkin-Elmer Janus workstation. The odorant plates were spun down to remove air bubbles, and placed on the FDSS6000 plate loader, and 5 μL of odorant solution was applied to the cell plate on the FDSS6000. Ca^2+ increase was monitored with fluorescence at 525 nm by excitation at 485 nm.

mOREG = target: T1, mOREG (Mus musculus, UniProt Q920P2); test: Ca2+-imaging, control receptor mOREG; format: cell-based; conditions: for inhibition at 4 µM: read-out: Percent Inhibition mOREG
T1 sequence (Q920P2 1-313): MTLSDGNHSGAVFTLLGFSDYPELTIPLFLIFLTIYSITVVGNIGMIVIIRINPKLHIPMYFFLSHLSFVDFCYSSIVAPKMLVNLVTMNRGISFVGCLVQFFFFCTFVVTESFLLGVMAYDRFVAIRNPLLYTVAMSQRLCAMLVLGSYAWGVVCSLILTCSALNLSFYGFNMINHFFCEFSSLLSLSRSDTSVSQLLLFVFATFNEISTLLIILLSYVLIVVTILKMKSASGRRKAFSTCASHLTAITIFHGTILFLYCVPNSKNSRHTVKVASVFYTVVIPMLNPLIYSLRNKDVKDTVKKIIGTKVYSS
Description: as §1, with “plates. The last two columns of the plate (32 wells total) were used as control wells as follows: • negative control with HBSS buffer (16 wells) • positive control with ligands (16 wells).” for “plates.”
as §2

[1] = ligand 1-octen-3-ol 30 μM, read-out: IC50 OR8 OR7

Sequence of OR8/OR7 (Q7QCC7 whole entry): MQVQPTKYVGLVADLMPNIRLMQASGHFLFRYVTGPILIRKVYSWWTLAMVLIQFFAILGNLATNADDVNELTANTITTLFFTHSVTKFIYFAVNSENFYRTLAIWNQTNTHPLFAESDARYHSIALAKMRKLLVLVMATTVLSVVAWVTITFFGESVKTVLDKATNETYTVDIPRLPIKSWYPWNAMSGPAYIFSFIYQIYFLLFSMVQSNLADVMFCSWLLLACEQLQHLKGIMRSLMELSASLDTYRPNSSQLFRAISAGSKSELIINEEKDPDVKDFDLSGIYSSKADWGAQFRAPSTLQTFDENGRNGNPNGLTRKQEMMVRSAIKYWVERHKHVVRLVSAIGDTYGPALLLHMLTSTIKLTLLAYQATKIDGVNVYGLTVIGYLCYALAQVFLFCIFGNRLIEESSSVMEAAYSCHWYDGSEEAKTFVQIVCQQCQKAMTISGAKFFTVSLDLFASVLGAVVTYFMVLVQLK
Sequence of OR8/OR7 (Q7PUT5 entry or part of it): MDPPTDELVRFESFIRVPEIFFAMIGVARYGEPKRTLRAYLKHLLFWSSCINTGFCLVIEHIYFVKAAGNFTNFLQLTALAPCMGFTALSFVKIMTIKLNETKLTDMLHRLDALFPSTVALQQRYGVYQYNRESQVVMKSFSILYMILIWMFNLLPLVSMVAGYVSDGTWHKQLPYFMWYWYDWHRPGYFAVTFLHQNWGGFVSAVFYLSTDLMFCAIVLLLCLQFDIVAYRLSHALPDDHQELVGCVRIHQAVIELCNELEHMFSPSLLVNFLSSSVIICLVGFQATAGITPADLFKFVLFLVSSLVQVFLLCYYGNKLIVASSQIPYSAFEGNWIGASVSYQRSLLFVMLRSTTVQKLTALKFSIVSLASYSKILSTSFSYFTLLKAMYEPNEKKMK

Row | SMILES | inhibition at 4 µM (OR8/OR7; compound applied at 4 μM) [%] | inhibition at 4 µM (mOREG; compound applied at 4 μM) [%] | other results
1 | CCN(CC)C(=O)Oc1ccc2c(ccn2Cc2cccc(C)c2)c1NC(=O)CCCCC(=O)OC [RU-0075445] |  |  | inhibition at 4 µM (OR8/OR7): < 25%; inhibition at 4 µM (mOREG): < 25%
2 | O=C(c1ccco1)N(Cc1nccn1Cc1c(F)cccc1Cl)C1CC1 [RU-0048046] | < 25 | < 25 | 
3 | C=CCN(Cc1nccn1Cc1ccccc1C)C(=O)CC(C)C [RU-0058298] | < 25 | 26 to 50 | 
4 | Cc1nc(NC(C)C)nc(NC(C)C)n1 [RU-T6] |  |  | IC50 (OR8/OR7): < 2000 nM
5 | Cc1nn(-c2ccc(Cl)cc2)c(C)c1C(=O)NCc1ccccn1 [RU-0048608] | < 25 | < 25 | 
6 | O=C(c1cccc(F)c1)N(Cc1c(-c2ccccc2)noc1N1CCCC1)CC1CCCO1 (centres unmarked) [RU-0037434] | 51 to 74 | 26 to 50 | IC50 (OR8/OR7; Table B, read-out: IC50 OR8): > 1000 nM
7 | Cc1ccccc1C(=O)N[C@@H]1CCCCC1NC(=O)C1CCN(C(=O)c2ccc(C(C)(C)C)cc2)CC1 (some centres unmarked) [RU-0045678] | 26 to 50 | 26 to 50 | 
8 | CC(C)Nc1nc(Cl)nc(NC(C)C)n1 [RU-T1] |  |  | IC50 (OR8/OR7): > 220000 nM
9 | Cc1ccccc1C(=O)N[C@@H]1CCCCC1NC(=O)C1CCN(C(=O)c2cc(C(F)(F)F)cc(C(F)(F)F)c2)CC1 (some centres unmarked) [RU-0045778] | < 25 | 26 to 50 | 
10 | Fc1cccc(Cl)c1Cn1ccnc1CN(CC1CCCC1)C1CC1 [RU-I4] |  |  | IC50 (OR8/OR7; [1]): > 220000 nM
11 | COCCCN(Cc1c(-c2ccccc2)noc1N1CCCC1)C(=O)c1ccc(F)cc1 [RU-0037386] | 51 to 74 | 26 to 50 | IC50 (OR8/OR7; Table B, read-out: IC50 OR8): > 1000 nM
12 | Cc1ccccc1C(=O)N[C@@H]1CCCCC1NC(=O)C1CCCN(S(=O)(=O)c2cc(Cl)ccc2Cl)C1 (some centres unmarked) [RU-0045691] | < 25 | 26 to 50 | 
13 | CCN(CC)C(=O)c1cccc(C)c1 [DEET, N,N-diethyl-m-toluamide, reference compound] |  |  | IC50 (OR8/OR7; [1]): > 50000 nM
14 | CCOC(=O)c1c(NC(C)=O)c(-c2ccc(OC)cc2)cn1Cc1ccccc1 [RU-0077733] | < 25 | < 25 | 
15 | CCN(CC)c1onc(-c2ccccc2)c1CN(CC1CCCO1)C(=O)c1ccc2c(c1)OCO2 (centres unmarked) [RU-0036875] | 51 to 74 | 51 to 74 | IC50 (OR8/OR7; Table B, read-out: IC50 OR8): > 1000 nM; IC50 (mOREG; Table B): > 1000 nM
16 | O=C(Cc1cccc(F)c1)N1CCOC(COCc2c(Cl)cccc2Cl)C1 (centres unmarked) [RU-0050398] | < 25 | < 25 | 
17 | O=C(CCC1CCN(C(=O)c2cccc(-n3cccn3)c2)CC1)Nc1ccccc1 [RU-0032465] | 51 to 74 | 26 to 50 | IC50 (OR8/OR7; Table B, read-out: IC50 OR8): > 1000 nM
18 | O=C(c1ccco1)N(Cc1ccco1)Cc1nccn1Cc1ccccc1F [RU-0047694] | 51 to 74 | < 25 | IC50 (OR8/OR7; Table B, read-out: IC50 OR8): 100 to 1000 nM
19 | Cc1cccc(Cn2ccnc2CN(C(=O)c2ccccc2F)C2CCCCC2)c1 [RU-0047851] | < 25 | 26 to 50 | 
20 | CC(C)Nc1nc(Cl)nc(N(C)C(C)C)n1 [RU-T7] |  |  | IC50 (OR8/OR7): < 2000 nM
21 | COCCCN(Cc1c(-c2ccccc2)noc1N(C)C(C)C)C(=O)c1ccccc1OC [RU-0037003] | 26 to 50 | 26 to 50 | 
22 | COc1ccc(-n2c(Cc3ccccc3)nnc2SCCCC(=O)N2CCN(C(=O)c3ccc(C(F)(F)F)cc3)C(C)C2)cc1 (centres unmarked) [RU-0071828] | < 25 | 26 to 50 | 
23 | C=CCOc1cccc(C(=O)N2CCCC(C(=O)c3ccccc3OC)C2)c1 (centres unmarked) [RU-0029409] | 26 to 50 | < 25 | 
24 | CCCCCCCC(=O)N1CCCC(C(=O)NC2CCCC[C@H]2NC(=O)c2ccccc2C)C1 (some centres unmarked) [RU-0045756] | < 25 | 26 to 50 | 
25 | CC(C)Nc1nc(NC(C)C)nc(C(F)(F)F)n1 [RU-T8] |  |  | IC50 (OR8/OR7): 2000 to 20000 nM
